{"source": "patent US9101613B2", "about": "“Methods for treating neurological disease” (Neurim Pharmaceuticals (1991) Ltd., priority 2006, dated 2015)", "key": {"mice": {"tested_on": "mice", "experiment": "Rotarod assay, interaction with diazepam;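 as to all read-outs here: Success means running more than 120 min on the rod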", "assay_type": "in vivo", "conditions": "Diazepam 1.5 mg/kg p.o. + Vehicle i.p.; 15 rpm", "experimental": "The incidences of animals running more than […] on the rotating rod were noted, and significances were calculated by non-parametric x^2 test. 8 mice/group were used.\nThe rotarod apparatus is divided into five test zones, so that up to five mice may be tested at the same time. The rod has been specially machined to provide a suitable grip for the animal. The diameter of the rod is 3.5 cm. The rotation speed was 15 rpm. When the animal falls off the rotating rod, it presses a button to record automatically the time spent on the rod. On the day before the experiment the mice were trained to run on the rod rotating with 15 rpm. Diazepam was administered orally 60 min before the rotarod assay, test substances were administered intraperitoneally 15 min before testing."}, "MT-2 receptor": {"biological_target": "T1, MT-2 receptor (Homo sapiens, UniProt P49286)", "T1 construct": "expressed in transfected cells; host or cells: CHP-K1 (Chinese hamster ovary) cells (so in the source)", "T1 sequence (P49286 1-362)": "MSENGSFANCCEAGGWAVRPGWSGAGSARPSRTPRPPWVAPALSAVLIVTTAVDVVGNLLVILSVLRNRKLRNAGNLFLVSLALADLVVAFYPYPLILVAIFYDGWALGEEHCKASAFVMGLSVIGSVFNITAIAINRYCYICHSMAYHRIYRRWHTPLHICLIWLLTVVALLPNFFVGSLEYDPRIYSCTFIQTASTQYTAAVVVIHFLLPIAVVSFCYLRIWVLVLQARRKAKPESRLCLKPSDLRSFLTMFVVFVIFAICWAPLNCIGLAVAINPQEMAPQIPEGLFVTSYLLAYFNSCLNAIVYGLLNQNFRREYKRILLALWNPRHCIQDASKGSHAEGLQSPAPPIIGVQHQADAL", "experiment": "125I-melatonin binding in membranes of CHP-K1 cells, MT-2", "conditions": "0.05 nM 125I-melatonin; for IC50 / Ki: 25° C., 4 hours; for IC50: read-out: MT-2 receptor binding IC50; for Ki: read-out: MT-2 receptor binding KI; for inhibition at 10 µM: read-out: MT-2 receptor binding % inhibition by 10 μM", "experimental": "(§1) Aliquots of suspended membranes of human recombinant CHP-K1 (Chinese hamster ovary) cells stably expressing human melatonin-1 or melatonin-2 (MT-1 or MT-2) receptors or of hamster brain (MT-3) were incubated at 25° C. with 0.05 nM ^125I-melatonin in buffer (25 mM HEPES, pH 7.4, 5 mM MgCl2, 1 mM CaCl2, 0.5% BSA) or with 0.1 nM for MT-3 alone or in the presence of 1 nM, 10 nM, 0.1 μM, 1 μM and 10 μM of test substances N-[2-(5-methoxy-indol-3-yl)-ethyl]-commenamide, N-[2-(5-methoxy-indol-3-yl)-ethyl]-comanilamide, N-[2-(5-methoxy-indol-3-yl)-ethyl]-coumalylamide, N-[2-(5-methoxy-indol-3-yl)-ethyl]-2-methoxy-commenamide, N-[2-(5-methoxy-indol-3-yl)-ethyl]-chelidonamide, O-[2-(5-methoxy-indol-3-yl)-ethyl]-comenic ester, N-[2-(5-methoxy-indol-3-yl)-ethyl]-2-Pyrone-6-carboxamide and N-[2-(2-bromo-5-methoxy-indol-3-yl)-ethyl]-coumalylamide for 3 hours for MT-1, 4 hours for MT-2 and 30 min for MT-3. The binding reaction was terminated and the membranes were washed with 4 ml of ice-cold HEPES buffer by vacuum filtration. Membranes were then collected, and the filters containing the bound ^125I-melatonin were assayed for the amount of radioactivity in a […]. Non-specific binding was evaluated using a reaction with 1 μM 6-chloromelatonin (MT-1 and MT-2) or 30 μM melatonin (MT-3)."}, "MT-1 receptor": {"biological_target": "T2, MT-1 receptor (Homo sapiens, UniProt P48039)", "T2 construct": "expressed in transfected cells; host or cells: CHP-K1 (Chinese hamster ovary) cells (so in the source)", "T2 sequence (P48039 whole entry)": "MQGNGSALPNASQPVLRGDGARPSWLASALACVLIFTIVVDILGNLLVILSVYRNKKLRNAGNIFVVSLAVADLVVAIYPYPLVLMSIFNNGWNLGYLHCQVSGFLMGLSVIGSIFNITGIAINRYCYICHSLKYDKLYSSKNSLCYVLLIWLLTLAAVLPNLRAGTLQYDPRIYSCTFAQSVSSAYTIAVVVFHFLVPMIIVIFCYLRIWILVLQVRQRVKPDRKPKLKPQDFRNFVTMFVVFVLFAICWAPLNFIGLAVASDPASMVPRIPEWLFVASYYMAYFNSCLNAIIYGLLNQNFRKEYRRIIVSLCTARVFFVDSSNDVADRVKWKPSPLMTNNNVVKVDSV", "experiment": "125I-melatonin binding in membranes of CHP-K1 cells, MT-1", "conditions": "0.05 nM 125I-melatonin; for IC50 / Ki: 25° C., 3 hours; for IC50: read-out: MT-1 receptor binding IC50; for Ki: read-out: MT-1 receptor binding KI; for inhibition at 10 µM: read-out: MT-1 receptor binding % inhibition by 10 μM", "experimental": "as §1"}, "3T3-L1 adipocytes": {"tested_on": "3T3-L1 adipocytes", "experiment": "2-[3H]-deoxy-d-glucose uptake in FFA-treated 3T3-L1 adipocyte model", "assay_type": "cell-based", "experimental": "Adipocytes were glucose-starved for 1 h in Hepes-salt buffer containing 2% FFA-free BSA. FFA (free fatty acids) were then added to the cells at the indicated concentrations (300 μM) for the indicated times (3 h). 10 min before the end of the FFA treatment, the cells were stimulated with insulin (20 nM)/melatonin (10 nM)/test compounds (10 nM) at 37° C. 2-[^3H]-deoxy-d-glucose at 1 μCi/mL and 0.1 mM unlabeled 2-deoxyglucose in KRP-HEPES buffer was added and cells were incubated for 10 min at room temperature. Non-specific glucose uptake was measured by parallel incubations in the presence of 10 μM cytochalasin B, which blocks transporter-mediated glucose uptake, and was subtracted from total uptake in each assay. Cells were then washed three times with ice-cold phosphate buffered saline (PBS) and solubilized in 1M NaOH for 20 minutes. The sample was then counted using a scintillation counter. 2-[^3H]-deoxy-d-glucose uptake was assayed in triplicates for each condition in at least 3 independent experiments. 2-[^3H]-deoxy-d-glucose uptake (counts per minute-cpm) are presented as mean+SE of triplicates in a representative experiment or results of three independent experiments. ANOVA test was used with significance of P<0.05 (Table 7)."}, "CD1 mice": {"tested_on": "CD1 mice", "experiment": "Potentiation of hexobarbital-Na sleep time in mice", "assay_type": "in vivo", "experimental": "CD1 mice were divided randomly into groups of seven mice each. The mice in each group were administered intraperitoneally a dose of one of the following: 100 mg/kg of one of test substances O-[2-(5-methoxy-indol-3-yl)-ethyl]-comenic ester, N-[2-(5-methoxyindol-3-yl)-ethyl]-commenamide, N-[2-(5-methoxy-indol-3-yl)-ethyl]-coumalylamide, N-[2-(5-methoxy-indol-3-yl)-ethyl]-chelidonamide, N-[2-(5-methoxy-indol-3-yl)-ethyl]-comanilamide or N-[2-(5-methoxy-indol-3-yl)-ethyl]-2-methoxy-commenamide in saline (0.1 ml/10 g body weight), or saline alone. Fifteen minutes later the mice received a dose of 50 mg/kg of hexobarbital-Na intravenously. Sleep time was measured in each animal as the time from loss to recovery of the righting reflex."}, "[1]": {"tested_on": "rat primary cortical neurons", "experiment": "Neurite outgrowth in rat primary cortical neurons", "assay_type": "cell-based", "conditions": "5 days of culture", "experimental": "The aim of this study was to assess the potential effect of N-[2-(5-methoxy-indol-3-yl)-ethyl]-comanilamide (100 nM) after 5 days of culture on neurite outgrowth in rat primary cortical neurons. The study used three separate cultures (n=6 wells per condition); the mean value of the 3 cultures (+/−sem) was calculated.\nRat cortical neurons were cultured as described by Singer et al., 1999. Briefly pregnant female rats of 15 days gestation are killed by cervical dislocation (Rats Wistar; Janvier) and the fetuses removed from the uterus. The cortex are removed and placed in ice-cold medium of Leibovitz (L15; Invitrogen) containing 1% of Penicillin-Streptomycin (PS; Invitrogen) and 1% of bovine serum albumin (BSA; Sigma). Cortex are dissociated by trypsinisation for 20 min at 37° C. (Trypsin EDTA 1×; Invitrogen) diluted in PBS without calcium and magnesium. The reaction is stopped by the addition of Dulbecco's modified Eagle's medium (DMEM; Invitrogen) containing DNAase I grade II (0.1 mg/ml; Roche Diagnostic) and 10% of fetal calf serum (FCS; Invitrogen). Cells are then mechanically dissociated by 3 passages through a 10 ml pipette. Cells are then centrifuged at 180×g for 10 min at 10° C. The supernatant is discarded and the cells of pellet are re-suspended in a defined culture medium consisting of Neurobasal (Invitrogen) supplemented with B27 (2%; Invitrogen), L-glutamine (0.2 mM; Invitrogen) and 1% of PS solution with 10 ng/ml of Brain-derived neurotrophic factor (BDNF).\nFor the neurite outgrowth assay, the cells are seed with test compound A (at 100 nM) and reference compound (BDNF at 10 ng/ml used as reference control) on defined medium (Neurobasal supplemented with 2% of B27, 0.2 mM of L-glutamine and 1% of PS).\nThe cultures were done (a) without BDNF in order to analyse the neurotrophic effect of compounds alone and (b) with low BDNF concentration (0.5 ng/ml) in order to analyse the synergic neurotrophic effect of N-[2-(5-methoxy-indol-3-yl)-ethyl]-comanilamide with the growth factor.\nAfter 5 days of culture in presence of N-[2-(5-methoxy-indol-3-yl)-ethyl]-comanilamide and reference, cells were fixed by a cool solution of ethanol (95%) and acetic acid (5%) for 10 min. After permeabilization with 0.1% of saponin, cells were incubated with monoclonal antibody anti microtubule associated protein 2 (MAP-2; Sigma). This antibody stains specifically cell bodies and neurite of neurons. […] Nuclei of neurons were labeled by a fluorescent marker (Hoechst solution, SIGMA). Per well, 20 pictures were taken using InCell Analyzer™ 1000 (GE Healthcare) with 20× magnification. All images were done in the same conditions. Analysis of the neuritis networks and neuron were assessed using Developer software (GE Healthcare). […]"}}}
{"molecule": "CN1C(=O)CN=C(c2ccccc2)c2cc(Cl)ccc21", "note": "[Diazepam, reference compound]", "values": [{"measurement": "Incidence of performance (rotarod)", "setting": "mice", "value": "6/8"}]}
{"molecule": "COc1ccc2[nH]c(Br)c(CCNC(=O)c3ccc(=O)oc3)c2c1", "note": "[N-[2-(2-bromo-5-methoxy-indol-3-yl)-ethyl]-coumalylamide]", "values": [{"measurement": "IC50", "setting": "MT-2 receptor", "value": 850, "unit": "nM"}, {"measurement": "Ki", "setting": "MT-2 receptor", "value": 441, "unit": "nM"}, {"measurement": "inhibition at 10 µM", "setting": "MT-2 receptor", "value": 89, "unit": "%"}, {"measurement": "IC50", "setting": "MT-1 receptor", "value": 2400, "unit": "nM"}, {"measurement": "Ki", "setting": "MT-1 receptor", "value": 1250, "unit": "nM"}, {"measurement": "inhibition at 10 µM", "setting": "MT-1 receptor", "value": 76, "unit": "%"}]}
{"molecule": "COc1ccc2[nH]cc(CCNC(=O)c3cccc(=O)o3)c2c1", "note": "[N-[2-(5-methoxy-indol-3-yl)-ethyl]-2-Pyrone-6-carboxamide]", "values": [{"measurement": "IC50", "setting": "MT-2 receptor", "value": 5060, "unit": "nM"}, {"measurement": "Ki", "setting": "MT-2 receptor", "value": 2630, "unit": "nM"}, {"measurement": "inhibition at 10 µM", "setting": "MT-2 receptor", "value": 65, "unit": "%"}, {"measurement": "IC50", "setting": "MT-1 receptor", "value": 10100, "unit": "nM"}, {"measurement": "Ki", "setting": "MT-1 receptor", "value": 5240, "unit": "nM"}, {"measurement": "inhibition at 10 µM", "setting": "MT-1 receptor", "value": 50, "unit": "%"}]}
{"molecule": "COc1ccc2[nH]cc(CCOC(=O)c3cc(=O)c(O)co3)c2c1", "note": "[O-[2-(5-methoxy-indole-3-yl)-ethyl]-comenic ester]", "values": [{"measurement": "2-[3H]-deoxy-d-glucose uptake (cpm)", "setting": "3T3-L1 adipocytes; Insulin 20 nM + FFA 300 μM (3 h) + substance 10 nM", "value": 1787, "unit": "cpm"}, {"measurement": "effect on hexobarbital-Na narcosis time", "setting": "CD1 mice; 100 mg/kg i.p.", "value": "significantly increased the hexobarbital-Na narcosis time"}, {"measurement": "Changes (%) vs. Vehicle (sleep time)", "setting": "CD1 mice; 100 mg/kg i.p. 15 min before 50 mg/kg hexobarbital-Na i.v.", "value": "+108%"}, {"measurement": "Mean Sleep Time-Treatment (min) ± SE", "setting": "CD1 mice; 100 mg/kg i.p. 15 min before 50 mg/kg hexobarbital-Na i.v., loss to recovery of righting reflex", "value": "15.15 ± 6.02", "unit": "min"}, {"measurement": "IC50", "setting": "MT-2 receptor", "value": 1640, "unit": "nM"}, {"measurement": "Ki", "setting": "MT-2 receptor", "value": 850, "unit": "nM"}, {"measurement": "inhibition at 10 µM", "setting": "MT-2 receptor", "value": 78, "unit": "%"}, {"measurement": "inhibition at 10 µM", "setting": "MT-1 receptor", "value": 47, "unit": "%"}]}
{"molecule": "Insulin", "values": [{"measurement": "2-[3H]-deoxy-d-glucose uptake (cpm)", "setting": "3T3-L1 adipocytes; Insulin (20 nM) alone, no FFA", "value": 1839, "unit": "cpm"}]}
{"molecule": "BDNF: Brain-derived neurotrophic factor, growth factor used as reference compound (protein, UniProt P23560 19-247, looked up) Neurotrophic factor BDNF …: APMKEANIRGQGGLAYPGVRTHGTLESVNGPKAGSRGLTSLADTFEHVIEELLDEDQKVRPNEENNKDADLYTSRVMLSSQVPLEPPLLFLLEEYKNYLDAANMSMRVRRHSDPARRGELSVCDSISEWVTAADKKTAVDMSGGTVTVLEKVPVSKGQLKQYFYETKCNPMGYTKEGCRGIDKRHWNSQCRTTQSYVRALTMDSKKRIGWRFIRIDTSCVCTLTIKRGR", "values": [{"measurement": "neurite length, % of control", "setting": "[1]; BDNF 0.5 ng/ml alone", "value": "~125 % of control"}, {"measurement": "neurite length, % of control", "setting": "[1]; BDNF 10 ng/ml reference", "value": "~153 % of control"}]}
